US20150037399A1, “NOVEL USE OF PIPOXOLAN AND ITS PHARMACEUTICAL COMPOSITION” (China Medical University, priority 2013, published 2015)

Tested on: cerebral infarction area in the brain of ischemic rats
Test: Transient focal cerebral ischemia-reperfusion model, infarct area (TTC staining)
Assay type: in vivo, Sprague-Dawley (SD) rats
Conditions: 24 hr after reperfusion, vs control group
Description: Animals are male Sprague-Dawley (SD) rats, weighing 225-275 g and male ICR mice, weighing 25-30 g were purchased from BioLASCO Co. Ltd. (Taipei, Taiwan). All animals were fed regular chow and housed in standard cages at a constant temperature of 22±1° C. and relative humidity of 55±5% with 12 hr inverted light-dark cycle for 1 week prior to the experiments. Surgery was performed under zoletil® anesthesia. Five to six animals were used to obtain consistent data in each group. Pipoxolan was dissolved in dimethylsulfoxide (DMSO) and diluted in tissue culture medium before use. Focal ischemia was induced by occlusion of both common carotid arteries (CCA) and the right middle cerebral artery (MCA). Eighteen rats were randomly assigned to 3 treatment groups, six rats for each group. Group 1 rats were treated with saline and groups 2 and 3 treated with pipoxolan (10 mg/kg and 30 mg/kg, respectively). Rats were fasted overnight with free access to water. […] After 24 hr, all rats were alive and neurobehavioral deficits evaluation and infarct assessment were performed Twenty four hours following reperfusion, neurological function of rats was assessed. […] The image of each section was digitized and the infarct area was determined morphometrically using Image-Pro Plus 6.0 (Media Cybernetics, Md., USA).

Cl.O=C1OC(CCN2CCCCC2)OC1(c1ccccc1)c1ccccc1 (centres unmarked) [pipoxolan, 5,5-diphenyl-2-(2-piperidin-1-ylethyl)-1,3-dioxolan-4-one hydrochloride]
percent reduction of cerebral infarction (10 mg/kg p.o. 1 hr prior to ischemia): 43.18%
percent reduction of cerebral infarction (30 mg/kg p.o. 1 hr prior to ischemia): 73.43%
